Consider 15 molecules from patent US20040248877A1, “Polycyclic diazodioxide-based Bcl-2 protein antagonists and use thereof” (priority 2003, published 2004).

Structures are written as SMILES. Where two headings read alike, the source gives them in different places.

The target of one data set is Bcl-XL (Homo sapiens, UniProt Q07817). Conditions: cited from earlier work.
The next data set concerns cell. Conditions: cell line not specified; cited from earlier work.
The next data set concerns Bcl-2 and Bcl XL. The note with it: cited from earlier work.
Data set [1] relates to HL60, human leukemic cells expressing high Bcl-2 and low Bcl-XL levels. In words: Acute cytotoxicity (apoptotic activity), Alamar Blue viability. Type of data set: cell-based. How it is done:
(§1) The biological activity of the compounds provided herein were assessed in cellular system by the method similar to the one described by Amundson et al. (Amundson, S. A. et al, Cancer Research 2000, 60, 6101-6110), which is incorporated herein by reference in its entirety. The compounds were tested for acute cytotoxicity (apoptotic activity) using two human cancer cell lines expressing high levels of either Bcl-2 or Bcl-XL. HL60, human leukemic cells expressing high Bcl-2 and low Bcl-XL levels, and A549 human lung cells expressing low Bcl-2 and high Bcl-XL levels, were incubated with the compounds at concentrations between 0.5 and 1000 μg/mL for 4 hours at 37° C., 5% CO2. The number of viable cells were measured by mitochondrial transformation of Alamar Blue to a fluorescent dye. LC50 values for each test compound and controls are provided in the individual examples that follow.
(§2) The compounds provided herein were tested for acute cytoxicity (apoptotic activity) using two human cancer cell lines expressing high levels of either Bcl-2 or Bcl-XL. HL-60 cells expressing high Bcl-2 and low Bcl-XL levels, and A549 human lung cells expressing low Bcl-2 and high Bcl-XL levels (Amundson, S. A. et al. Cancer Research 2000, 60, 6101-6110) were incubated with the compounds at concentrations between […] for 4 hours at 37° C., 5% CO2. The number of viable cells were measured my mitochondrial transformation of Alamar Blue to a fluorescent dye. As negative controls, the compounds were tested against the cell lines with low levels of Bcl-2 expression, viz., MDA-453 cells (Enyedy, I. J. et al. J. Med. Chem. 2001, 44, 4313-4324). LC50 values for each compound and controls were determined.

The test system of data set [2] is A549 human lung cells expressing low Bcl-2 and high Bcl-XL levels. The description is as above. The format is cell-based. How it is done:
as §1, §2

Where [3] appears, read: protein not specified, read-out: IC50 (FP).
The mark [4] stands for this setting: Homo sapiens, HL-60, 4 h, read-out: LC 50 (μM) HL-60.
The mark [5] stands for this setting: Homo sapiens, A549, 4 h, read-out: LC 50 (μM) A549.

Sequence of Bcl-XL (Q07817 whole entry, species assumed): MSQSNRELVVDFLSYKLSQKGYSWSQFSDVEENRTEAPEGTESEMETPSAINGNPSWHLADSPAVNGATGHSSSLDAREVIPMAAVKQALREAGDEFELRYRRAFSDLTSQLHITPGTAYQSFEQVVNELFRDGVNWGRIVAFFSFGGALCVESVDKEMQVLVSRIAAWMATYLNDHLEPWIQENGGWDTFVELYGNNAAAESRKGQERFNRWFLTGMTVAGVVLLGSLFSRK

As a reminder, the IC50 is the point on the concentration scale where inhibition reaches its midpoint. On to `Cc1cc2c(C(C)C)c(O)c(O)c(C=O)c2c(O)c1-c1c(C)cc2c(C(C)C)c(O)c(O)c(C=O)c2c1O` [Compound 1, Gossypol], for which the IC50 on Bcl-XL was 0.4 µM; in the data set on cell, 1.5 µM.
For `CCCC[C@H]1C(=O)O[C@H](C)[C@H](NC(=O)c2cccc(NC=O)c2O)C(=O)O[C@@H](C)[C@@H]1OC(=O)CC(C)C` [Compound 2, Antimycin], the IC50 was 2.5 µM with Bcl-2 and Bcl XL (setting [3]); 1.2 µM in the data set with cell.
Take `CCOC(=O)OC(C#N)C1C=C(N)Oc2ccc(Br)cc21` (stereo not shown) [Compound 4]: the IC50 is 9 µM with Bcl-2 and Bcl XL (setting [3]); 18 µM in the data set with cell. Moreover, the CC50 in data set [1] (setting [4]) and in data set [2] (setting [5]) was greater than 200 µM each time.
As for `CC(C)C(C(=O)O)C1C(=O)/C(=C/c2ccc(Br)cc2)SC1=S` (stereo not shown) [Compound 5], the IC50 in the data set on Bcl-2 and Bcl XL (setting [3]) is 2.4 µM; in the data set with cell, roughly 90 µM. Also, the CC50 in data set [1] (setting [4]) and in data set [2] (setting [5]) was greater than 200 µM throughout.
For the molecule `O=C(Nc1cc(S(=O)(=O)c2ccc(Cl)cc2)ccc1Cl)c1cc(Cl)cc(I)c1O` [Compound 6], the IC50 is 3.3 µM with Bcl-2 and Bcl XL (setting [3]); roughly 30 µM in the data set with cell. Moreover, the CC50 in data set [1] (setting [4]) and in data set [2] (setting [5]) was greater than 200 µM each time.
As to `CC(C)Cc1cc(-c2ccc(-c3ccc(OCC(=O)O)c(CC(C)C)c3)c(Cc3cccc4ccccc34)c2)ccc1CCC(=O)O` [Compound 7], the IC50 in the data set with Bcl-2 and Bcl XL (Bcl-2 antagonist designed by molecular modeling, read-out: IC50 value) was 0.114 µM. Also, the CC50 in data set [1] (setting [4]) and in data set [2] (setting [5]) was greater than 200 µM each time.
`[O-][N+]1=[N+]([O-])c2ccc(OCC(F)(F)F)cc2CCc2cc(OCC(F)(F)F)ccc21` [Example 1, dibenzo[c,g][1,2]diazocine, 11,12-dihydro-2,9-bis(2,2,2-trifluoroethoxy)-, 5,6-dioxide]: the CC50 is 26.1 µM in data set [1] (Homo sapiens, HL-60, 4 hours at 37° C., read-out: LC50 value in HL-60 cell line) and 80.9 µM in data set [2] (Homo sapiens, A549, 4 hours at 37° C., read-out: LC50 value in A549 cell line).
For the molecule `[O-][N+]1=[N+]([O-])c2ccc(OC(F)F)cc2CCc2cc(OC(F)F)ccc21` [Example 2, dibenzo[c,g][1,2]diazocine, 2,9-bis(difluoromethoxy)-11,12-dihydro-5,6-dioxide], the results for the CC50 in data set [1] and in data set [2] were 18.5 µM and 298 µM, respectively.
In the case of `[O-][n+]1nc2ccccc2c2ccccc21` [compound 9], the CC50 in data set [1] (setting [4]) and in data set [2] (setting [5]) was greater than 200 µM each time.
Consider `[O-]/[N+]1=N/c2ccc(F)cc2CCc2cc(F)ccc21` [compound 13], for which the CC50 in data set [1] (setting [4]) and in data set [2] (setting [5]) was greater than 200 µM each time.
Turning to `[O-]/[N+]1=N/c2ccc(OCc3ccccc3)cc2CCc2cc(OCc3ccccc3)ccc21` [compound 15], the CC50 in data set [1] (setting [4]) and in data set [2] (setting [5]) was greater than 200 µM each time.
In the case of `[O-]/[N+]1=N/c2ccc(OC(F)F)cc2CCc2cc(OC(F)F)ccc21` [compound 16], the CC50 in data set [1] (setting [4]) and in data set [2] (setting [5]) was greater than 200 µM each time.
Take `[O-]/[N+]1=N/c2ccc(Oc3ccc(C(F)(F)F)cn3)cc2CCc2cc(Oc3ccc(C(F)(F)F)cn3)ccc21` [compound 18]: the CC50 in data set [1] (setting [4]) and in data set [2] (setting [5]) was greater than 200 µM in each case.
As for `[O-]/[N+]1=N/c2ccc(Oc3ccc(C(F)(F)F)cn3)cc2CCc2ccccc21` [compound 19], the CC50 in data set [1] (setting [4]) and in data set [2] (setting [5]) was greater than 200 µM throughout.
For the molecule `CCS(=O)(=O)c1ccc2c(c1)CCc1cc(S(=O)(=O)CC)ccc1/[N+]([O-])=N\2` [compound 21], the CC50 in data set [1] (setting [4]) and in data set [2] (setting [5]) was greater than 200 µM throughout.
